This note sets out measurements from US20240150377A1, “MODULATORS OF CYSTIC FIBROSIS TRANSMEMBRANE CONDUCTANCE REGULATOR” (VERTEX PHARMACEUTICALS INCORPORATED, priority 2020, published 2024).

The term EC50 denotes the concentration giving half of the maximal effect.

Bounds are passed on as bounds.

The target of this experiment is T1, CFTR (Homo sapiens, UniProt P13569, DEL508-508).
T1 construct: endogenous in cells; host or cells: primary human bronchial epithelial cells from CF subjects (F508del/MF-HBE), differentiated at air-liquid interface
T1 sequence (P13569 with tags, fused parts or gaps DEL508-508): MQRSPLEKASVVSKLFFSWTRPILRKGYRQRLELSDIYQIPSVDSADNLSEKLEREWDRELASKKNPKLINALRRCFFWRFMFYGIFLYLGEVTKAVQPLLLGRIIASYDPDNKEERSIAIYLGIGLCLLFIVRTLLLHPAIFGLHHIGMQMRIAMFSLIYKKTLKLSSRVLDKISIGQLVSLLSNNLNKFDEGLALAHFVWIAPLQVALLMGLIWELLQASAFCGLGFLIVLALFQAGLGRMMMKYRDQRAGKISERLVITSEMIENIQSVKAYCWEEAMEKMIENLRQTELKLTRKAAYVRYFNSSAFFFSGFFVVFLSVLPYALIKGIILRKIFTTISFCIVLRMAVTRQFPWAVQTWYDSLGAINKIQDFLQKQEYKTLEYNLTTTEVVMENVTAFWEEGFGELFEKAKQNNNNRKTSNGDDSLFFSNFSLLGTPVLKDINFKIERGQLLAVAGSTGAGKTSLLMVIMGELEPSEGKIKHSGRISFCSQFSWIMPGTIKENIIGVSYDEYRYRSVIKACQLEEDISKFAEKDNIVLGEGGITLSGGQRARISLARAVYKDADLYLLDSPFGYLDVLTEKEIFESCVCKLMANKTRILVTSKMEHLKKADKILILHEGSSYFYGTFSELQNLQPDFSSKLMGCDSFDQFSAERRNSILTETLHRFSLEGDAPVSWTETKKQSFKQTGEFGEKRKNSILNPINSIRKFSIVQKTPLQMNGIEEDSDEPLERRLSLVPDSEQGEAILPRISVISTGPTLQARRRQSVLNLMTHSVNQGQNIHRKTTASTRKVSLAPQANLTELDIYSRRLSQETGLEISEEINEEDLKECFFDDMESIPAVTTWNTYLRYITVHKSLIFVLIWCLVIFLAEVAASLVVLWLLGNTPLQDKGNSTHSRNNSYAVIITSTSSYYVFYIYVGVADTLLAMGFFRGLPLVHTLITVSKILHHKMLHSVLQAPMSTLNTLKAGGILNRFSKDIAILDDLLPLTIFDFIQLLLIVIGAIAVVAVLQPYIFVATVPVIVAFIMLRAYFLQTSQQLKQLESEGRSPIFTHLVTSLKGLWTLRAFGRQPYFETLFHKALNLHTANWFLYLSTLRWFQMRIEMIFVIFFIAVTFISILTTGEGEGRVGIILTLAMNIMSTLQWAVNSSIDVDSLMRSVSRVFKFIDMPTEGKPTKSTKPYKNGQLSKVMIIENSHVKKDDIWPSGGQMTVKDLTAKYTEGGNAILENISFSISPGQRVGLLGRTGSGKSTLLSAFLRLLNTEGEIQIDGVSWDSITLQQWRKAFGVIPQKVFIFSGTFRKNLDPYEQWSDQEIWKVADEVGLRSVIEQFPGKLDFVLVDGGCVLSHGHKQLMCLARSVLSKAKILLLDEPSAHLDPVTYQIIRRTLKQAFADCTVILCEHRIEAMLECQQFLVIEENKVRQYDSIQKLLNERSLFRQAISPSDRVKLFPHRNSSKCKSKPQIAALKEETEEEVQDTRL
Description: HBE2 assay: Ussing chamber assay of CFTR-mediated short-circuit currents. Format: cell-based. Conditions: F508del/MF-HBE cells, 18-24 hours, 20% human serum; for Emax: read-out: HBE2 Max activity (%). In a few lines:
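Corrector activity read as CFTR-dependent ISC (μA/cm^2): peak forskolin current minus post-inhibitor steady state. Measured at 37 °C, voltage clamp at 0 mV, on F508del/MF-HBE epithelia grown >14 days air-liquid interface in Ussing chambers.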

Where [1] appears, read: 3 μM corrector, with 44 nM potentiator.

Take `Cc1cccc(C)c1-c1cc2nc(n1)NS(=O)(=O)c1cccc(c1)C(=O)N(Cc1cncc(N3CCC[C@H]3C)n1)[C@H](COC(C)C)CO2` [Compound 1937]: the “HBE2 Activity at 3 μM (%)” value under setting [1] is listed as “+++ (+++ is >60+)”. `Cc1cccc(C)c1-c1cc2nc(n1)NS(=O)(=O)c1cccc(c1)C(=O)N(Cc1cncc(N3CCC[C@H]3C(C)C)n1)[C@H](CCC(C)(C)C)CO2` [Compound 1716]: the “HBE2 Activity at 3 μM (%)” value under setting [1] is on record as “+++ (+++ is >60+)”. For the same compound, the concentration for a half-maximal effect (EC50) (corrector at a range of concentrations with 44 nM potentiator) is below 1 µM. Besides, for the setting “with 44 nM potentiator”, the Emax is above 60%.

`Cc1cccc(C)c1-c1cc2nc(n1)NS(=O)(=O)c1cccc(c1)C(=O)N(Cc1cncc(N3CC[C@H]3C)n1)[C@H](CC1CCCCC1)CO2` [Compound 1823]: the “HBE2 Activity at 3 μM (%)” value under setting [1] was “+++ (+++ is >60+)”.

In the case of `Cc1cccc(C)c1-c1cc2nc(n1)NS(=O)(=O)c1cccc(c1)C(=O)N(Cc1cncc(C3CCCCO3)n1)[C@H](CCC(C)(C)C)CO2` (stereo in doubt) [Compound 1881], the “HBE2 Activity at 3 μM (%)” value under setting [1] is given as “+++ (+++ is >60+)”. Turning to `Cc1cccc(C)c1-c1cc2nc(n1)NS(=O)(=O)c1cccc(c1)C(=O)N(Cc1cncc(N3CCCC3C)n1)[C@H](C1CC(C)(C)C1)CO2` (single isomer, unassigned) [Compound 1338], the “HBE2 Activity at 3 μM (%)” value under setting [1] is given as “+++ (+++ is >60+)”. For `Cc1cccc(C)c1-c1cc2nc(n1)NS(=O)(=O)c1cccc(c1)C(=O)N(Cc1cncc(N(C)C3CCC3)n1)[C@H](CC1(C(F)(F)F)CC1)CO2` [Compound 1688], the “HBE2 Activity at 3 μM (%)” value (3 μM, with 44 nM potentiator) is “+++ (+++ is >60+)”. Where the note is “with 44 nM potentiator”, the 50% effective concentration (EC50) is below 1 µM and the Emax is above 60%. For the compound `Cc1cccc(C)c1-c1cc2nc(n1)NS(=O)(=O)c1cccc(c1)C(=O)N(Cc1coc(N(C)C3CCC3)n1)[C@H](CC(C)(C)C)CO2` [Compound 1318, (11R)-12-[[2-[Cyclobutyl(methyl)amino]oxazol-4-yl]methyl]-6-(2,6-dimethylphenyl)-11-(2,2-dimethylpropyl)-2,2-dioxo-9-oxa-2λ^6-thia-3,5,12,19-tetrazatricyclo[12.3.1.14,8]nonadeca-1(18),4(19),5,7,14,16-hexaen-13-one], under “3 μM, with 44 nM potentiator”, the “HBE2 Activity at 3 μM (%)” value is listed as “+++ (+++ is >60+)”. On to `Cc1cccc(C)c1-c1cc2nc(n1)NS(=O)(=O)c1cccc(c1)C(=O)N(Cc1cncc(N3CC4CC3C4)n1)[C@H](CC(C)(C)C)CO2` [Compound 1687], for which the “HBE2 Activity at 3 μM (%)” value (3 μM, with 44 nM potentiator) was “+++ (+++ is >60+)”. With `CO[C@H](C)[C@@H]1CCCN1c1cncc(CN2C(=O)c3cccc(c3)S(=O)(=O)Nc3nc(cc(-c4c(C)cccc4C)n3)OC[C@H]2CCC(C)(C)C)n1` [Compound 1935], under setting [1], the “HBE2 Activity at 3 μM (%)” value was “+++ (+++ is >60+)”. Take `COC[C@@H]1CCN1c1cncc(CN2C(=O)c3cccc(c3)S(=O)(=O)Nc3nc(cc(-c4c(C)cccc4C)n3)OC[C@H]2CC(C)(C)F)n1` [Compound 1802]: the “HBE2 Activity at 3 μM (%)” value under setting [1] is “+++ (+++ is >60+)”. `Cc1cccc(C)c1-c1cc2nc(n1)NS(=O)(=O)c1cccc(c1)C(=O)N(Cc1cncc(N3CC[C@H]3COC(C)C)n1)[C@H](CCC(C)(C)C)CO2` [Compound 1868]: the “HBE2 Activity at 3 μM (%)” value under setting [1] is given as “+++ (+++ is >60+)”. On to `Cc1cccc(C)c1-c1cc2nc(n1)NS(=O)(=O)c1cccc(c1)C(=O)N(Cc1cncc(N3CCCC[C@H]3C)n1)[C@H](CC1CCCC1)CO2` [Compound 1847], for which the “HBE2 Activity at 3 μM (%)” value under setting [1] was “+++ (+++ is >60+)”. For the compound `Cc1cccc(C)c1-c1cc2nc(n1)NS(=O)(=O)c1cccc(c1)C(=O)N(Cc1cnc3cc(C(C)C)n(C)c3n1)[C@H](CC(C)(C)F)CO2` [Compound 1819], the “HBE2 Activity at 3 μM (%)” value under setting [1] is recorded as “+++ (+++ is >60+)”. For the compound `Cc1cccc(C)c1-c1cc2nc(n1)NS(=O)(=O)c1cccc(c1)C(=O)N(Cc1cccc(N3CCC[C@H]3C(C)C)n1)[C@H](CC1(C)CCC1)CO2` [Compound 1776], the “HBE2 Activity at 3 μM (%)” value under setting [1] is recorded as “+++ (+++ is >60+)”. In the case of `Cc1cccc(C)c1-c1cc2nc(n1)NS(=O)(=O)c1cccc(c1)C(=O)N(Cc1cncc(N3CC[C@H]3C(C)C)n1)[C@H](CCC(C)(C)C)CO2` [Compound 1797], the “HBE2 Activity at 3 μM (%)” value under setting [1] is recorded as “+++ (+++ is >60+)”.

As to `Cc1cccc(C)c1-c1cc2nc(n1)NS(=O)(=O)c1cccc(c1)C(=O)N(Cc1cncc(N(C)C3CCC3)n1)[C@H](CC1CCC1)CO2` [Compound 1669], the “HBE2 Activity at 3 μM (%)” value (3 μM, with 44 nM potentiator) is “+++ (+++ is >60+)”. Besides, under “with 44 nM potentiator”, the concentration giving a half-maximal response (EC50) is below 1 µM and the Emax was above 60%. `COC1(CN(C)c2cncc(CN3C(=O)c4cccc(c4)S(=O)(=O)Nc4nc(cc(-c5c(C)cccc5C)n4)OC[C@H]3CC(C)(C)C)n2)CCC1` [Compound 1758]: the “HBE2 Activity at 3 μM (%)” value under setting [1] was “+++ (+++ is >60+)”. With `Cc1cccc(C)c1-c1cc2nc(n1)NS(=O)(=O)c1cccc(c1)C(=O)N(Cc1cncc(N3CC(C)(C)[C@H]3C(C)C)n1)[C@H](CC(C)(C)C)CO2` (stereo in doubt) [Compound 1751], the “HBE2 Activity at 3 μM (%)” value under setting [1] is on record as “+++ (+++ is >60+)”.

On to `Cc1cccc(C)c1-c1cc2nc(n1)NS(=O)(=O)c1cccc(c1)C(=O)N(Cc1cncc(C3CCC3)n1)[C@H](CCC(C)(C)C)CO2` [Compound 1852], for which the “HBE2 Activity at 3 μM (%)” value under setting [1] is recorded as “+++ (+++ is >60+)”. As for `Cc1cccc(C)c1-c1cc2nc(n1)NS(=O)(=O)c1cccc(c1)C(=O)N(Cc1cncc(N(C)CCC(C)C)n1)[C@H](CC(C)(C)C)CO2` [Compound 1696], for the setting “3 μM, with 44 nM potentiator”, the “HBE2 Activity at 3 μM (%)” value is on record as “+++ (+++ is >60+)”. As to `CC[C@H](C)N(C)c1cncc(CN2C(=O)c3cccc(c3)S(=O)(=O)Nc3nc(cc(-c4c(C)cccc4C)n3)OC[C@H]2CC(C)(C)C)n1` [Compound 1673], under “3 μM, with 44 nM potentiator”, the “HBE2 Activity at 3 μM (%)” value is given as “+++ (+++ is >60+)”. Further, for the setting “with 44 nM potentiator”, the concentration giving a half-maximal response (EC50) is below 1 µM and the Emax was above 60%. Turning to `Cc1cccc(C)c1-c1cc2nc(n1)NS(=O)(=O)c1cccc(c1)C(=O)N(Cc1cncc(N3CC4CC3(C)C4)n1)[C@H](CC(C)(C)C)CO2` [Compound 1691], under “3 μM, with 44 nM potentiator”, the “HBE2 Activity at 3 μM (%)” value is listed as “+++ (+++ is >60+)”.

Consider `Cc1cccc(C)c1-c1cc2nc(n1)NS(=O)(=O)c1cccc(c1)C(=O)N(Cc1cncc(N3CCC[C@H]3C3CC3)n1)[C@H](CC1CCCCC1)CO2` [Compound 1866], for which, under setting [1], the “HBE2 Activity at 3 μM (%)” value was “+++ (+++ is >60+)”. As for `Cc1cccc(C)c1-c1cc2nc(n1)NS(=O)(=O)c1cccc(c1)C(=O)N(Cc1cncc(N3CCC[C@@H]4CC[C@@H]43)n1)[C@H](CCC(C)C)CO2` [Compound 1747], the “HBE2 Activity at 3 μM (%)” value under setting [1] was “+++ (+++ is >60+)”. In the case of `COC(=O)N(C)c1cncc(CN2C(=O)c3cccc(c3)S(=O)(=O)Nc3nc(cc(-c4c(C)cccc4C)n3)OC[C@H]2CC(C)(C)C)n1` [Compound 1582], the “HBE2 Activity at 3 μM (%)” value (3 μM, with 44 nM potentiator) is recorded as “+++ (+++ is >60+)”. As for `CCn1c(C)cc2ncc(CN3C(=O)c4cccc(c4)S(=O)(=O)Nc4nc(cc(-c5c(C)cccc5C)n4)OC[C@H]3CC(C)(C)C)nc21` [Compound 1910], the “HBE2 Activity at 3 μM (%)” value under setting [1] is “+++ (+++ is >60+)”.

Take `CC[C@H]1CCCN1c1cncc(CN2C(=O)c3cccc(c3)S(=O)(=O)Nc3nc(cc(-c4c(C)cccc4C)n3)OC[C@H]2COC2CC2)n1` (stereo in doubt) [Compound 1890]: the “HBE2 Activity at 3 μM (%)” value under setting [1] is given as “+++ (+++ is >60+)”. Turning to `Cc1cccc(C)c1-c1cc2nc(n1)NS(=O)(=O)c1cccc(c1)C(=O)N(Cc1cncc(N3C(=O)CC[C@H]3C)n1)[C@H](CC(C)(C)C)CO2` [Compound 1674], the “HBE2 Activity at 3 μM (%)” value (3 μM, with 44 nM potentiator) is listed as “+++ (+++ is >60+)”. `Cc1cccc(C)c1-c1cc2nc(n1)NS(=N)(=O)c1cccc(c1)C(=O)N(Cc1ncc(N3CC(C)(C)C3)cn1)[C@H](CC(C)(C)C)CO2` (single isomer, unassigned) [Compound 1312]: the “HBE2 Activity at 3 μM (%)” value (3 μM, with 44 nM potentiator) is given as “++ (++ is 30-60%)”. With `Cc1cccc(C)c1-c1cc2nc(n1)NS(=O)(=O)c1cccc(c1)C(=O)N(Cc1cncc(N3CCC[C@H]3C)n1)[C@H](C[C@H]1CCCOC1)CO2` (stereo in doubt) [Compound 1940], the “HBE2 Activity at 3 μM (%)” value under setting [1] was “+++ (+++ is >60+)”. Turning to `Cc1cccc(C)c1-c1cc2nc(n1)NS(=O)(=O)c1cccc(c1)C(=O)N(Cc1ncc(N3CC(C)(C)C3)cn1)[C@H](CCC1CC1)CO2` [Compound 1595], the “HBE2 Activity at 3 μM (%)” value (3 μM, with 44 nM potentiator) is listed as “+++ (+++ is >60+)”. Still for that read-out and setting: then `Cc1cccc(C)c1-c1cc2nc(n1)NS(=O)(=O)c1cccc(c1)C(=O)N(Cc1ncc(OC(C)C)cn1)[C@H](CCC1CC1)CO2` [Compound 1597], with “+++ (+++ is >60+)”. For `CCN(CC1CC1)c1cncc(CN2C(=O)c3cccc(c3)S(=O)(=O)Nc3nc(cc(-c4c(C)cccc4C)n3)OC[C@H]2CC(C)(C)C)n1` [Compound 1780], the “HBE2 Activity at 3 μM (%)” value under setting [1] was “+++ (+++ is >60+)”. Regarding `CCC(C)Oc1cnc(CN2C(=O)c3cccc(c3)S(=O)(=O)Nc3nc(cc(-c4c(C)cccc4C)n3)OC[C@H]2CCC2CC2)nc1` (stereo partly shown) [Compound 1598], where the note is “3 μM, with 44 nM potentiator”, the “HBE2 Activity at 3 μM (%)” value is recorded as “+++ (+++ is >60+)”. The same measure, in the same setting: in the case of `COC(=O)N(C)CCN(C)c1cncc(CN2C(=O)c3cccc(c3)S(=O)(=O)Nc3nc(cc(-c4c(C)cccc4C)n3)OC[C@H]2CC(C)(C)C)n1` [Compound 1686] it was “+++ (+++ is >60+)”.

As to `Cc1cccc(C)c1-c1cc2nc(n1)NS(=O)(=O)c1cccc(c1)C(=O)N(Cc1cncc(N(C)[C@H]3C[C@@H](F)C3)n1)[C@H](COC1CC1)CO2` [Compound 1906], under setting [1], the “HBE2 Activity at 3 μM (%)” value is recorded as “+++ (+++ is >60+)”. Take `Cc1cccc(C)c1-c1cc2nc(n1)NS(=O)(=O)c1cccc(c1)C(=O)N(Cc1cncc(N3CC[C@H]3C3CCC3)n1)[C@H](CC(C)(C)C)CO2` (stereo in doubt) [Compound 1637]: for the setting “3 μM, with 44 nM potentiator”, the “HBE2 Activity at 3 μM (%)” value is given as “+++ (+++ is >60+)”.

For `Cc1cccc(C)c1-c1cc2nc(n1)NS(=O)(=O)c1cccc(c1)C(=O)N(Cc1ncc(OC3CCC3)cn1)[C@H](COC(C)C)CO2` [Compound 1956], the “HBE2 Activity at 3 μM (%)” value under setting [1] is listed as “+++ (+++ is >60+)”.
